In patent publication US9850283B2, “Macrocyclic inhibitors of the PD-1/PD-L1 and CD80(B7-1)/PD-L1 protein/protein interactions” (BRISTOL-MYERS SQUIBB COMPANY, priority 2013, dated 2017):
Positions of bridges follow the written chain, without caps; N, C: chain ends. Non-standard residues stand in square brackets, D forms with d. Residues, ends and D or L forms follow the SMILES beside them. ξ: configuration not given here. Bta = N[C@@H](Cc1csc2ccccc12)C(=O)O; Hyp = O=C(O)[C@@H]1C[C@@H](O)CN1; NMeNle = CCCC[C@H](NC)C(=O)O; NMeM = CN[C@@H](CCSC)C(=O)O; NMeS = CN[C@@H](CO)C(=O)O; NMeA = CN[C@@H](C)C(=O)O; ξhCys = NC(CCS)C(=O)O; ξC = NC(CS)C(=O)O

Columns and labels:
Human PD-L1/PD-1 = biological target: T1, Human PD-L1/PD-1 (Homo sapiens, UniProt Q9NZQ7); assay: HTRF PD-1-Ig/PD-L1-His binding assay (human PD-L1); settings: cluster symbol; read-out: HTRF IC50 cluster
T1 construct: made in house; host or cells: HEK293T
How it was run: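 Soluble Fc-fused PD-1 and His-tagged PD-L1 (truncated before the transmembrane region) were combined in dPBS with 0.1% (w/v) BSA and 0.05% (v/v) Tween-20. Binding was read by HTRF using europium cryptate anti-Ig antibody (1 nM final) and APC anti-His antibody (20 nM final).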

[1] = biological target: T2, LK35.2-hPD-L1 cells / PE-labeled PD-1-Ig (Homo sapiens, UniProt Q9NZQ7); assay: LK35.2-hPD-L1 cell binding high-content screening assay; format: cell-based; settings: cell binding assay, cell line not given; cluster symbol; read-out: CBA IC50 cluster
T2 construct: expressed in transfected cells; host or cells: LK35.2 mouse B cell line
How it was run: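 Compound effect on PD-1/PD-L1 binding is measured by imaging cell-associated phycoerythrin signal. Human PD-1-Ig (PE on Ig tag, 1 nM final) is applied with compound to a murine B cell line overexpressing human PD-L1 for 1 h at 37 °C in serum-containing RPMI.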

T2 sequence (Q9NZQ7 19-290): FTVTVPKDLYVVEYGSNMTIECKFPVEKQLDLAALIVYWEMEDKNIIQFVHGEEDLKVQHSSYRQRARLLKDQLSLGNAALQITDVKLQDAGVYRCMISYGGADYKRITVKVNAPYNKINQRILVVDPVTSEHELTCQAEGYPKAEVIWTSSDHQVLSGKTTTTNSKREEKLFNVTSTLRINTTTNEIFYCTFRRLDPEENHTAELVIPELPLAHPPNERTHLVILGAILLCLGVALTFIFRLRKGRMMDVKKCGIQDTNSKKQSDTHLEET
T1 sequence (Q9NZQ7 with tags, fused parts or gaps): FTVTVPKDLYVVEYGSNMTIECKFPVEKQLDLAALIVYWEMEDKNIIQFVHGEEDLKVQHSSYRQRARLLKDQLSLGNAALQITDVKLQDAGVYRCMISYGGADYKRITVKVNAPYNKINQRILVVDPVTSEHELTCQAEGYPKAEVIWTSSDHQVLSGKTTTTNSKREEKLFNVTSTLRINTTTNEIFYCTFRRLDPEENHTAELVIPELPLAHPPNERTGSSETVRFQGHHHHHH

SMILES	IC50 (Human PD-L1/PD-1) [nM]	IC50 [1] [nM]
CCCC[C@H]1C(=O)N(C)[C@@H](CCCC)C(=O)N[C@@H](CCCNC(=N)N)C(=O)NC(C(=O)NCC(N)=O)CCSCC(=O)N[C@@H](Cc2ccc(O)cc2)C(=O)N(C)[C@@H](C)C(=O)N[C@@H](CC(N)=O)C(=O)N2CCC[C@H]2C(=O)N[C@@H](Cc2cnc[nH]2)C(=O)N[C@@H](CC(C)C)C(=O)N2C[C@H](O)C[C@H]2C(=O)N[C@@H](Cc2c[nH]c3ccccc23)C(=O)N[C@@H](CO)C(=O)N[C@@H](Cc2c[nH]c3ccccc23)C(=O)N1C (stereo partly drawn) [Example 9021] ({CH2CO}-Y[NMeA]NPHL[Hyp]WSW[NMeNle][NMeNle]R[ξhCys]G-NH2; thioether N-14)	6.76 to 30.3	> 74.3
CCCC[C@H]1C(=O)N(C)[C@@H](CCSC)C(=O)N[C@@H](CCCNC(=N)N)C(=O)NC(C(=O)NCC(N)=O)CSCC(=O)N[C@@H](Cc2ccc(O)cc2)C(=O)N(C)[C@@H](C)C(=O)N[C@@H](CC(N)=O)C(=O)N2CCC[C@H]2C(=O)N[C@@H](Cc2cnc[nH]2)C(=O)N[C@@H](CC(C)C)C(=O)N2CCC[C@H]2C(=O)N[C@@H](Cc2c[nH]c3ccccc23)C(=O)N[C@@H](CO)C(=O)N[C@@H](Cc2csc3ccccc23)C(=O)N1C (stereo partly drawn) [Example 9022] ({CH2CO}-Y[NMeA]NPHLPWS[Bta][NMeNle][NMeM]R[ξC]G-NH2; thioether N-14)	0.385 to 6.74	0.158 to 4.71
CCCC[C@H]1C(=O)N(C)[C@@H](CCSC)C(=O)N[C@@H](CCCNC(=N)N)C(=O)NC(C(=O)NCC(N)=O)CSCC(=O)N[C@@H](Cc2ccc(O)cc2)C(=O)N(C)[C@@H](C)C(=O)N[C@@H](CC(N)=O)C(=O)N2CCC[C@H]2C(=O)N[C@@H](Cc2cnc[nH]2)C(=O)N[C@@H](CC(C)C)C(=O)N2C[C@H](O)C[C@H]2C(=O)N[C@@H](Cc2c[nH]c3ccccc23)C(=O)N[C@@H](CO)C(=O)N[C@@H](Cc2csc3ccccc23)C(=O)N1C (stereo partly drawn) [Example 9023] ({CH2CO}-Y[NMeA]NPHL[Hyp]WS[Bta][NMeNle][NMeM]R[ξC]G-NH2; thioether N-14)	0.385 to 6.74	0.158 to 4.71
CCCC[C@H]1C(=O)N(C)[C@@H](CCSC)C(=O)N[C@@H](CCCNC(=N)N)C(=O)NC(C(=O)NCC(N)=O)CSCC(=O)N[C@@H](Cc2ccc(O)cc2)C(=O)N(C)[C@@H](C)C(=O)N[C@@H](CC(N)=O)C(=O)N2CCC[C@H]2C(=O)N[C@@H](Cc2cnc[nH]2)C(=O)N[C@@H](CC(C)C)C(=O)N2C[C@H](O)C[C@H]2C(=O)N[C@@H](Cc2c[nH]c3ccccc23)C(=O)N[C@@H](CO)C(=O)N[C@@H](Cc2c[nH]c3ccccc23)C(=O)N1C (stereo partly drawn) [Example 9024]	0.385 to 6.74	0.158 to 4.71
CCCC[C@H]1C(=O)N[C@@H](CCCNC(=N)N)C(=O)NC(C(=O)NCC(N)=O)CSCC(=O)N[C@@H](Cc2ccc(O)cc2)C(=O)N(C)[C@@H](C)C(=O)N[C@@H](CC(N)=O)C(=O)N2CCC[C@H]2C(=O)N[C@@H](Cc2cnc[nH]2)C(=O)N[C@@H](CC(C)C)C(=O)N2C[C@H](O)C[C@H]2C(=O)N[C@@H](Cc2c[nH]c3ccccc23)C(=O)N[C@@H](CO)C(=O)N[C@@H](Cc2csc3ccccc23)C(=O)N(C)[C@@H](CCSC)C(=O)N1C (stereo partly drawn) [Example 9025] ({CH2CO}-Y[NMeA]NPHL[Hyp]WS[Bta][NMeM][NMeNle]R[ξC]G-NH2; thioether N-14)	0.385 to 6.74	0.158 to 4.71
CCCC[C@H]1C(=O)N(C)[C@@H](CCCC)C(=O)N[C@@H](CO)C(=O)NC(C(=O)NCC(N)=O)CSCC(=O)N[C@@H](Cc2ccc(O)cc2)C(=O)N(C)[C@@H](C)C(=O)N[C@@H](CC(N)=O)C(=O)N2CCC[C@H]2C(=O)N[C@@H](Cc2cnc[nH]2)C(=O)N[C@@H](CC(C)C)C(=O)N2CCC[C@H]2C(=O)N[C@@H](Cc2c[nH]c3ccccc23)C(=O)N[C@@H](CO)C(=O)N[C@@H](Cc2csc3ccccc23)C(=O)N1C (stereo partly drawn) [Example 9027] ({CH2CO}-Y[NMeA]NPHLPWS[Bta][NMeNle][NMeNle]S[ξC]G-NH2; thioether N-14)	0.385 to 6.74	0.158 to 4.71
CCCC[C@H]1C(=O)N(C)[C@@H](CCCC)C(=O)N[C@@H](CO)C(=O)NC(C(=O)NCC(N)=O)CSCC(=O)N[C@@H](Cc2ccc(O)cc2)C(=O)N(C)[C@@H](C)C(=O)N[C@@H](CC(N)=O)C(=O)N2CCC[C@H]2C(=O)N[C@@H](Cc2cnc[nH]2)C(=O)N[C@@H](CC(C)C)C(=O)N2C[C@H](O)C[C@H]2C(=O)N[C@@H](Cc2c[nH]c3ccccc23)C(=O)N[C@@H](CO)C(=O)N[C@@H](Cc2csc3ccccc23)C(=O)N1C (stereo partly drawn) [Example 9028] ({CH2CO}-Y[NMeA]NPHL[Hyp]WS[Bta][NMeNle][NMeNle]S[ξC]G-NH2; thioether N-14)	0.385 to 6.74	0.158 to 4.71
CCCC[C@H]1C(=O)N(C)[C@@H](CCCC)C(=O)N[C@@H](CO)C(=O)NC(C(=O)NCC(N)=O)CSCC(=O)N[C@@H](Cc2ccc(O)cc2)C(=O)N(C)[C@@H](C)C(=O)N[C@@H](CC(N)=O)C(=O)N2CCC[C@H]2C(=O)N[C@@H](Cc2cnc[nH]2)C(=O)N[C@@H](CC(C)C)C(=O)N2C[C@H](O)C[C@H]2C(=O)N[C@@H](Cc2c[nH]c3ccccc23)C(=O)N[C@@H](CO)C(=O)N[C@@H](Cc2c[nH]c3ccccc23)C(=O)N1C (stereo partly drawn) [Example 9029]	6.76 to 30.3	0.158 to 4.71
CCCC[C@H]1C(=O)N(C)[C@@H](CCSC)C(=O)N[C@@H](CCCNC(=N)N)C(=O)NC(C(=O)NCC(N)=O)CSCC(=O)N[C@@H](Cc2ccc(O)cc2)C(=O)N(C)[C@@H](C)C(=O)N[C@@H](CC(N)=O)C(=O)N2CCC[C@H]2C(=O)N[C@@H](Cc2cnc[nH]2)C(=O)N[C@@H](CC(C)C)C(=O)N2CCC[C@H]2C(=O)N[C@@H](Cc2c[nH]c3ccccc23)C(=O)N[C@@H](CO)C(=O)N[C@@H](Cc2c[nH]c3ccccc23)C(=O)N1C (stereo partly drawn) [Example 9030] ({CH2CO}-Y[NMeA]NPHLPWSW[NMeNle][NMeM]R[ξC]G-NH2; thioether N-14)	0.385 to 6.74	0.158 to 4.71
CCCC[C@H]1C(=O)N(C)[C@@H](CO)C(=O)N[C@@H](CCCNC(=N)N)C(=O)NC(C(=O)NCC(N)=O)CSCC(=O)N[C@@H](Cc2ccc(O)cc2)C(=O)N(C)[C@@H](C)C(=O)N[C@@H](CC(N)=O)C(=O)N2CCC[C@H]2C(=O)N[C@@H](Cc2cnc[nH]2)C(=O)N[C@@H](CC(C)C)C(=O)N2CCC[C@H]2C(=O)N[C@@H](Cc2c[nH]c3ccccc23)C(=O)N[C@@H](CO)C(=O)N[C@@H](Cc2c[nH]c3ccccc23)C(=O)N1C (stereo partly drawn) [Example 9032] ({CH2CO}-Y[NMeA]NPHLPWSW[NMeNle][NMeS]R[ξC]G-NH2; thioether N-14)	6.76 to 30.3	4.78 to 72.9
CCCC[C@H]1C(=O)N(C)[C@@H](CO)C(=O)N[C@@H](CCCNC(=N)N)C(=O)NC(C(=O)NCC(N)=O)CSCC(=O)N[C@@H](Cc2ccc(O)cc2)C(=O)N(C)[C@@H](C)C(=O)N[C@@H](CC(N)=O)C(=O)N2CCC[C@H]2C(=O)N[C@@H](Cc2cnc[nH]2)C(=O)N[C@@H](CC(C)C)C(=O)N2C[C@H](O)C[C@H]2C(=O)N[C@@H](Cc2c[nH]c3ccccc23)C(=O)N[C@@H](CO)C(=O)N[C@@H](Cc2csc3ccccc23)C(=O)N1C (stereo partly drawn) [Example 9033] ({CH2CO}-Y[NMeA]NPHL[Hyp]WS[Bta][NMeNle][NMeS]R[ξC]G-NH2; thioether N-14)	6.76 to 30.3	0.158 to 4.71
CCCC[C@H]1C(=O)N(C)[C@@H](CO)C(=O)N[C@@H](CCCNC(=N)N)C(=O)NC(C(=O)NCC(N)=O)CSCC(=O)N[C@@H](Cc2ccc(O)cc2)C(=O)N(C)[C@@H](C)C(=O)N[C@@H](CC(N)=O)C(=O)N2CCC[C@H]2C(=O)N[C@@H](Cc2cnc[nH]2)C(=O)N[C@@H](CC(C)C)C(=O)N2C[C@H](O)C[C@H]2C(=O)N[C@@H](Cc2c[nH]c3ccccc23)C(=O)N[C@@H](CO)C(=O)N[C@@H](Cc2c[nH]c3ccccc23)C(=O)N1C (stereo partly drawn) [Example 9034]	6.76 to 30.3	4.78 to 72.9
CCCC[C@H]1C(=O)N(C)[C@@H](CCCC)C(=O)N[C@@H](CCCNC(=N)N)C(=O)NC(C(=O)NCC(N)=O)CSCC(=O)N[C@@H](Cc2ccc(O)cc2)C(=O)N(C)[C@@H](CO)C(=O)N[C@@H](CC(N)=O)C(=O)N2CCC[C@H]2C(=O)N[C@@H](Cc2cnc[nH]2)C(=O)N[C@@H](CC(C)C)C(=O)N2CCC[C@H]2C(=O)N[C@@H](Cc2c[nH]c3ccccc23)C(=O)N[C@@H](CO)C(=O)N[C@@H](Cc2csc3ccccc23)C(=O)N1C (stereo partly drawn) [Example 9035] ({CH2CO}-Y[NMeS]NPHLPWS[Bta][NMeNle][NMeNle]R[ξC]G-NH2; thioether N-14)	6.76 to 30.3	4.78 to 72.9
CCCC[C@H]1C(=O)N(C)[C@@H](CCCC)C(=O)N[C@@H](CCCNC(=N)N)C(=O)NC(C(=O)NCC(N)=O)CSCC(=O)N[C@@H](Cc2ccc(O)cc2)C(=O)N(C)[C@@H](CO)C(=O)N[C@@H](CC(N)=O)C(=O)N2CCC[C@H]2C(=O)N[C@@H](Cc2cnc[nH]2)C(=O)N[C@@H](CC(C)C)C(=O)N2C[C@H](O)C[C@H]2C(=O)N[C@@H](Cc2c[nH]c3ccccc23)C(=O)N[C@@H](CO)C(=O)N[C@@H](Cc2c[nH]c3ccccc23)C(=O)N1C (stereo partly drawn) [Example 9036]	0.385 to 6.74	0.158 to 4.71
CCCC[C@H]1C(=O)N(C)[C@@H](CCCC)C(=O)N[C@@H](CCCNC(=N)N)C(=O)NC(C(=O)N[C@@H](CO)C(N)=O)CSCC(=O)N[C@@H](Cc2ccc(O)cc2)C(=O)N(C)[C@@H](C)C(=O)N[C@@H](CC(N)=O)C(=O)N2CCC[C@H]2C(=O)N[C@@H](Cc2cnc[nH]2)C(=O)N[C@@H](CC(C)C)C(=O)N2CCC[C@H]2C(=O)N[C@@H](Cc2c[nH]c3ccccc23)C(=O)N[C@@H](CO)C(=O)N[C@@H](Cc2c[nH]c3ccccc23)C(=O)N1C (stereo partly drawn) [Example 9037] ({CH2CO}-Y[NMeA]NPHLPWSW[NMeNle][NMeNle]R[ξC]S-NH2; thioether N-14)	6.76 to 30.3	0.158 to 4.71
